Patent publication US20090137517A1, “SENSITIZING A CELL TO CANCER TREATMENT BY MODULATING THE ACTIVITY OF A NUCLEIC ACID ENCODING RPS27L PROTEIN” (Agency for Science, Technology and Research, priority 2006, published 2009)

How the values were obtained:
RPS27L mRNA = assay: RT-PCR of RPS27L mRNA after drug treatment of HCT116 cells; assay type: cell-based, human; conditions: p53 wild-type HCT116 cells; ADR (1 μM) or 5-FU (375 μM); not in p53 null cells
Excerpt: FIG. 1A depicts the microarray analysis showing a set of genes whose expression was induced by the DNA damaging agents adriamycin (ADR) and 5-fluorouracil (5-FU) in p53 wild-type HCT116 cells (human colorectal carcinoma cell line containing wild type p53) but not in the p53 null counterpart. In both treatments, RPS27L, together with bona fide p53 targets such as cdkn1a (encodes p21), Pmaid (encodes Noxa) and ccd3 (encodes Puma), was unregulated in a p53-dependent manner. To validate the microarray data, RT-PCR analysis was performed (FIG. 1B).
The human colon carcinoma cell line HCT116 and its p53 knock-out derivate cells were kindly provided by Dr. Bert Vogelstein. HCT116 cells can also be purchased under the ATCC number: CCL 247. The human osteosarcoma cell lines U2OS and Saos-2 can be purchased under the following ATCC numbers: U2OS, ATCC HTB-96; Saos-2, ATCC HTB-85 and SH-SY5Y, ATCC CRL-2266. Cells were grown in DMEM supplemented with 10% fetal bovine serum and penicillin-streptomycin (Invitrogen). Adriamycin, etoposide phosphate (VP16®) and 5-fluorouracil were purchased from Sigma-Aldrich.
All RT-PCR was performed using the Titanium One Step RT-PCR Kit (BD Clontech).

HCT116 cells = assay: BrdU incorporation / 7-amino-actinomycin D FACS analysis; assay type: cell-based, human; conditions: for cells with a hyperploid DNA content (>4.v): ADR 24 hours
Experimental: Given the increased sensitivity to DNA damage upon RPS27L depletion, the inventors next investigated whether loss of RPS27L could impair the DNA damage checkpoint. […] However, parental cells underwent a dramatic decrease in DNA synthesis (from 85% to 11%) 24 hours after ADR treatment, whereas in HCT116 cells lacking RPS27L, this decrease in DNA synthesis was partially rescued (from 86% to 27%) (FIG. 5A).
Cells cycle analysis was performed by DNA content quantification. The cells were fixed with 70% ethanol and stained with propidium iodide (50 μg/ml) staining. The stained cells were analyzed by FACScalibur (BD Bioscience). For the BrdU incorporation assay and mitochondrial membrane potential detection, the BrdU Flow Kit and JC-1 staining kit (both from BD Bioscience) were used, respectively, following the instruction manual. Stained cells were analyzed by FACScalibur (BD Bioscience) and quantified by using CellQuest software (BD Bioscience).

Structure (SMILES): COc1cccc2c1C(=O)c1c(O)c3c(c(O)c1C2=O)C[C@@](O)(C(=O)CO)C[C@@H]3O[C@H]1C[C@H](N)[C@H](O)[C@H](C)O1 [ADR, adriamycin]
- RPS27L mRNA (RPS27L mRNA): induced
- DNA synthesis (BrdU, cells in S-phase) (HCT116 cells; HCT116 cells lacking RPS27L, 24 hours after ADR treatment (86% before)): 27%
- cells with a hyperploid DNA content (>4.v) (HCT116 cells; RPS27L-depleted HCT116 cells): 30%
- cells with a hyperploid DNA content (>4.v) (HCT116 cells; control HCT116 cells): 10.5%
- hyperploid population (HCT116 cells; p21-depleted HCT116 cells after ADR treatment): no increased hyperploid population
- DNA synthesis (BrdU, cells in S-phase) (HCT116 cells; parental (control) HCT116 cells, 24 hours after ADR treatment (85% before)): 11%
